Tested on: VR1 receptor
Experiment: High throughput calcium imaging assay (Fura2, Flex Station) of VR1 antagonists, pH 5.1 stimulus
Format: cell-based
Conditions: 1 uM compound; inhibition of calcium ion influx induced by capsaicin stimulation

Row | Structure (SMILES) | % Inhibition @ 1 uM
1 | COc1cccc(NC(=O)c2ccc(-c3ncccc3Cl)c(F)c2)c1 [Compound 119] | + (compound exhibited 0-25% inhibition of calcium ion influx induced by capsaicin stimulation)
2 | O=C(Nc1cccc(Cl)c1)c1ccc(-c2ncccc2Cl)cc1F [Compound 71] | + (compound exhibited 0-25% inhibition of calcium ion influx induced by capsaicin stimulation)
3 | N#Cc1cccc(NC(=O)c2ccc(-c3ncccc3Cl)cn2)c1 [Compound 299] | + + + + (“+ + + +” compound exhibited 75% or greater inhibition of calcium ion influx induced by capsaicin stimulation.)
4 | O=C(Nc1cccc(Cl)c1)c1ccc(-c2ncccc2Cl)cc1 [Compound 12] | + (compound exhibited 0-25% inhibition of calcium ion influx induced by capsaicin stimulation)
5 | Cc1cc(C)nc(NC(=O)c2ccc(-c3ncccc3Cl)cc2)c1 [Compound 37] | + (compound exhibited 0-25% inhibition of calcium ion influx induced by capsaicin stimulation)
6 | COc1cc(C(=O)Nc2cc(C)nc(C)n2)ccc1-c1ncccc1Cl [Compound 232] | + (“+” compound exhibited 0-25% inhibition of calcium ion influx induced by capsaicin stimulation.)
7 | COc1cc(C(=O)Nc2ccc(N3CCNCC3)c(Cl)c2)ccc1-c1ncccc1Cl [Compound 259] | + (“+” compound exhibited 0-25% inhibition of calcium ion influx induced by capsaicin stimulation.)
8 | Cc1cccnc1NC(=O)c1ccc(-c2ncccc2Cl)cc1 [Compound 48] | + + (compound exhibited 25-50% inhibition of calcium ion influx induced by capsaicin stimulation)
9 | O=C(Nc1cccc(OC(F)(F)F)c1)c1ccc(-c2ncccc2Cl)cn1 [Compound 344] | + + (“+ +” compound exhibited 25-50% inhibition of calcium ion influx induced by capsaicin stimulation.)
10 | O=C(Nc1ccc2ccccc2c1)c1ccc(-c2ncccc2Cl)c(F)c1 [Compound 160] | + + + + (compound exhibited 75% or greater inhibition of calcium ion influx induced by capsaicin stimulation)
11 | O=C(Nc1cccnc1Cl)c1ccc(-c2ncccc2Cl)cc1 [Compound 30] | + + (compound exhibited 25-50% inhibition of calcium ion influx induced by capsaicin stimulation)
12 | CN1CCCc2ccc(NC(=O)c3ccc(-c4ncccc4Cl)cc3)cc21 [Compound 287] | + (“+” compound exhibited 0-25% inhibition of calcium ion influx induced by capsaicin stimulation.)
13 | CCn1c2ccccc2c2cc(NC(=O)c3ccc(-c4ncccc4Cl)c(OC)c3)ccc21 [Compound 234] | + (“+” compound exhibited 0-25% inhibition of calcium ion influx induced by capsaicin stimulation.)
14 | COc1cc(C(=O)Nc2ccccc2)ccc1-c1ncccc1Cl [Compound 189] | + (compound exhibited 0-25% inhibition of calcium ion influx induced by capsaicin stimulation)
15 | Cc1cc(C)nc(NC(=O)c2ccc(-c3ncccc3Cl)c(F)c2)c1 [Compound 139] | + (compound exhibited 0-25% inhibition of calcium ion influx induced by capsaicin stimulation)
16 | COc1ccc(NC(=O)c2ccc(-c3ncccc3Cl)cc2)cc1O [Compound 271] | + (“+” compound exhibited 0-25% inhibition of calcium ion influx induced by capsaicin stimulation.)
17 | O=C(Nc1ccc2ccccc2c1)c1ccc(-c2ncccc2Cl)cn1 [Compound 331] | + + (“+ +” compound exhibited 25-50% inhibition of calcium ion influx induced by capsaicin stimulation.)
18 | N#Cc1cccc(NC(=O)c2ccc(-c3ncccc3Cl)cc2F)c1 [Compound 84] | + + + + (compound exhibited 75% or greater inhibition of calcium ion influx induced by capsaicin stimulation)
19 | COc1cc(C(=O)Nc2ccnc(Cl)c2)ccc1-c1ncccc1Cl [Compound 231] | + (“+” compound exhibited 0-25% inhibition of calcium ion influx induced by capsaicin stimulation.)
20 | COc1cc(C(=O)Nc2ccncc2)ccc1-c1ncccc1Cl [Compound 218] | + + + + (“+ + + +” compound exhibited 75% or greater inhibition of calcium ion influx induced by capsaicin stimulation.)
21 | O=C(Nc1ccncc1)c1ccc(-c2ncccc2Cl)cn1 [Compound 313] | + + + (“+ + +” compound exhibited 50-75% inhibition of calcium ion influx induced by capsaicin stimulation.)
22 | O=C(Nc1ccc(F)cc1[N+](=O)[O-])c1ccc(-c2ncccc2Cl)c(F)c1 [Compound 132] | + + + + (compound exhibited 75% or greater inhibition of calcium ion influx induced by capsaicin stimulation)
23 | O=C(Nc1ccc(F)c(F)c1)c1ccc(-c2ncccc2Cl)cc1 [Compound 279] | + (“+” compound exhibited 0-25% inhibition of calcium ion influx induced by capsaicin stimulation.)
24 | O=C(Nc1ccc(C(F)(F)F)cn1)c1ccc(-c2ncccc2Cl)cc1 [Compound 50] | + + (compound exhibited 25-50% inhibition of calcium ion influx induced by capsaicin stimulation)
25 | COc1cc(C(=O)Nc2cc(C)cc(C)n2)ccc1-c1ncccc1Cl [Compound 217] | + (“+” compound exhibited 0-25% inhibition of calcium ion influx induced by capsaicin stimulation.)

Row | Structure (SMILES) | % Inhibition @ 1 uM
26 | CCC1c2ccccc2-c2cc(NC(=O)c3ccc(-c4ncccc4Cl)cc3)ccc21 (stereo not drawn) [Compound 55] | + + (compound exhibited 25-50% inhibition of calcium ion influx induced by capsaicin stimulation)
27 | Cc1cc(NC(=O)c2ccc(-c3ncccc3Cl)cc2)nc(C)n1 [Compound 35] | + (compound exhibited 0-25% inhibition of calcium ion influx induced by capsaicin stimulation)
28 | O=C(Nc1ccc(C(F)(F)F)cn1)c1ccc(-c2ncccc2Cl)cc1F [Compound 97] | + (compound exhibited 0-25% inhibition of calcium ion influx induced by capsaicin stimulation)
29 | COc1cc(C(=O)Nc2cc(C)ccn2)ccc1-c1ncccc1Cl [Compound 223] | + + + + (“+ + + +” compound exhibited 75% or greater inhibition of calcium ion influx induced by capsaicin stimulation.)
30 | CC(C)Oc1cccc(NC(=O)c2ccc(-c3ncccc3Cl)cn2)c1 [Compound 345] | + (“+” compound exhibited 0-25% inhibition of calcium ion influx induced by capsaicin stimulation.)
31 | COc1ccc(NC(=O)c2ccc(-c3ncccc3Cl)c(OC)c2)cn1 [Compound 230] | + + (“+ +” compound exhibited 25-50% inhibition of calcium ion influx induced by capsaicin stimulation.)
32 | O=C(Nc1ccc2c(c1)Cc1ccccc1-2)c1ccc(-c2ncccc2Cl)cc1 [Compound 36] | + + (compound exhibited 25-50% inhibition of calcium ion influx induced by capsaicin stimulation)
33 | CCCCc1ccc(NC(=O)c2ccc(-c3ncccc3Cl)c(OC)c2)cc1 [Compound 204] | + + (“+ +” compound exhibited 25-50% inhibition of calcium ion influx induced by capsaicin stimulation.)
34 | COc1ccc(NC(=O)c2ccc(-c3ncccc3Cl)c(OC)c2)cc1OC [Compound 240] | + (“+” compound exhibited 0-25% inhibition of calcium ion influx induced by capsaicin stimulation.)
35 | O=C(Nc1cccnc1Cl)c1ccc(-c2ncccc2Cl)cc1F [Compound 101] | + (compound exhibited 0-25% inhibition of calcium ion influx induced by capsaicin stimulation)
36 | CCCOc1ccc(NC(=O)c2ccc(-c3ncccc3Cl)cc2)cc1 [Compound 274] | + (“+” compound exhibited 0-25% inhibition of calcium ion influx induced by capsaicin stimulation.)
37 | COc1ccc(NC(=O)c2ccc(-c3ncccc3Cl)cc2F)cn1 [Compound 103] | + (compound exhibited 0-25% inhibition of calcium ion influx induced by capsaicin stimulation)
38 | O=C(Nc1ccc2cn[nH]c2c1)c1ccc(-c2ncccc2Cl)c(F)c1 [Compound 172] | + + + (compound exhibited 50-75% inhibition of calcium ion influx induced by capsaicin stimulation)
39 | CCCOc1ccc(NC(=O)c2ccc(-c3ncccc3Cl)c(F)c2)cc1 [Compound 173] | + + (compound exhibited 25-50% inhibition of calcium ion influx induced by capsaicin stimulation)
40 | CC(C)(CO)NC(=O)c1ccc(-c2ncccc2Cl)cc1 [Compound 41] | + (compound exhibited 0-25% inhibition of calcium ion influx induced by capsaicin stimulation)
41 | COc1cc(C(=O)Nc2ccc(C)cc2C)ccc1-c1ncccc1Cl [Compound 206] | + + + + (“+ + + +” compound exhibited 75% or greater inhibition of calcium ion influx induced by capsaicin stimulation.)
42 | O=C(Nc1ccc(C(F)(F)F)cc1)c1ccc(-c2ncccc2Cl)cn1 [Compound 308] | + (“+” compound exhibited 0-25% inhibition of calcium ion influx induced by capsaicin stimulation.)
43 | CC1CCCc2ccc(NC(=O)c3ccc(-c4ncccc4Cl)c(F)c3)cc21 (stereo not drawn) [Compound 186] | + (compound exhibited 0-25% inhibition of calcium ion influx induced by capsaicin stimulation)
44 | CCOc1ccc(NC(=O)c2ccc(-c3ncccc3Cl)cc2)cc1 [Compound 281] | + (“+” compound exhibited 0-25% inhibition of calcium ion influx induced by capsaicin stimulation.)
45 | O=C(Nc1cc[nH]n1)c1ccc(-c2ncccc2Cl)c(F)c1 [Compound 158] | + (compound exhibited 0-25% inhibition of calcium ion influx induced by capsaicin stimulation)
46 | O=C(Nc1ccc(Cl)cc1Cl)c1ccc(-c2ncccc2Cl)cc1 [Compound 16] | + (compound exhibited 0-25% inhibition of calcium ion influx induced by capsaicin stimulation)
47 | O=C(Nc1ccc2ncccc2c1)c1ccc(-c2ncccc2Cl)c(F)c1 [Compound 156] | + + + + (compound exhibited 75% or greater inhibition of calcium ion influx induced by capsaicin stimulation)
48 | O=C(Nc1ccc(N2CCNCC2)c(Cl)c1)c1ccc(-c2ncccc2Cl)c(F)c1 [Compound 183] | + + + + (compound exhibited 75% or greater inhibition of calcium ion influx induced by capsaicin stimulation)
49 | COc1ccc(NC(=O)c2ccc(-c3ncccc3Cl)cn2)cn1 [Compound 324] | + + (“+ +” compound exhibited 25-50% inhibition of calcium ion influx induced by capsaicin stimulation.)
50 | O=C(Nc1ccncc1)c1ccc(-c2ncccc2Cl)cc1 [Compound 7] | + + + + (compound exhibited 75% or greater inhibition of calcium ion influx induced by capsaicin stimulation)

Same assay, conditions: 1 uM compound; inhibition of calcium ion influx induced by capsaicin stimulation; 1 µM

Row | Structure (SMILES) | % Inhibition @ 1 uM
51 | O=C(Nc1ccc2ccccc2c1)c1ccc(-c2ncccc2Cl)cc1 [Compound 54] | + (compound exhibited 0-25% inhibition of calcium ion influx induced by capsaicin stimulation)

Source: patent US20050197364A1, “Amide compounds as ion channel ligands and uses thereof” (priority 2003, published 2005)
